The nature of one series: in vivo. The note with it: mouse, po.
The next series addresses T1, Human cardiac chymase (Homo sapiens, UniProt P23946).
T1 construct: Human cardiac chymase was purified according to the process of Urata et al; from tissue; host or cells: human heart (cardiac)
T1 sequence (P23946 22-247): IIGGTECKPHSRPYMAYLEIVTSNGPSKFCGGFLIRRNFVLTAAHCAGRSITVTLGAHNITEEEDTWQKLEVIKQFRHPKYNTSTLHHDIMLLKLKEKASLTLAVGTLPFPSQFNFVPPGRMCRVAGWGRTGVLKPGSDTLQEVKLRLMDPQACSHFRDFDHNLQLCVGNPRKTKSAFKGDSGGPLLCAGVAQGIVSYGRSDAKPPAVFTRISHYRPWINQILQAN
Briefly: Inhibitory activity against chymase (Ang I to Ang II conversion, HPLC). It counts as biochemical. The protocol: Human cardiac chymase was purified according to the process of Urata et al. (see the literature described above), and the inhibitory activities of the hydantoin compounds according to the present invention against the chymase were determined in the following manner. Namely, 10 μl of the purified chymase and 5 μl of a solution of a sample to be tested in dimethyl sulfoxide (hereinafter abbreviated as "DMSO") were added to 10 μl of a 20 mM Tris-hydrochloric acid buffer (pH 7.5) containing 2M KCl, and the resultant mixture was preincubated at 37° C. for 10 minutes and then added with 25 μl of a 1 mM solution of Ang I, followed by incubation at 37° C. for 30 minutes. Then, 50 μl of 30% acetic acid were added to stop the enzyme reaction. On the other hand, 5 μl of DMSO were added in place of the solution of the test sample to similarly conduct a reaction as a blank test.
(§1) After completion of the reaction, each liquid reaction mixture was subjected to high performance liquid chromatography on Develosil ODS-5 (product of Nomura Kagaku, 4.6 mm across×150 mm long) to develop it at a linear concentration gradient that the concentration of acetonitrile in 0.05% trifluoroacetic acid (hereinafter abbreviated as "TFA") is increased from 0% to 60% in 10 minutes at a flow rate of 2.0 ml/min. Monitoring was performed by the absorbance measurements at 210 nm. Peaks were identified by comparison with standard solutions of Ang I and Ang II. The areas of the peaks were determined by an integrator to quantitate Ang I and Ang II, thereby calculating chymase activity. The inhibitory activity against chymase was determined by calculating an inhibition rate, median inhibitory concentration (IC50) on the basis of the value in the blank test.

The target of the next series is T2, cathepsin G (Homo sapiens, UniProt P08311).
T2 construct: cathepsin G (product of Calbiochem Co.) derived from human neutrophil; purchased Calbiochem Co; host or cells: human neutrophil
T2 sequence (P08311 21-244 limits assumed): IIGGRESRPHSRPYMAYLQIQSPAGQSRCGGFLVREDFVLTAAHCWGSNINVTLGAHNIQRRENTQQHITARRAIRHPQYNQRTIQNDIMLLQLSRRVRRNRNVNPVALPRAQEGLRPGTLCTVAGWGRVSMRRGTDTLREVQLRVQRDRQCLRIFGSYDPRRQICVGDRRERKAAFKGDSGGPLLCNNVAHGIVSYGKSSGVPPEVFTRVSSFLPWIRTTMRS
Briefly: Inhibitory activity against cathepsin G (Ang I to Ang II conversion, HPLC). Type of series: biochemical. The protocol: as §1
To a 20 mM Tris-hydrochloric acid buffer (pH 7.5) containing 2M KCl, were added 20 μl of a solution with cathepsin G (product of Calbiochem Co.) derived from human neutrophil dissolved at a concentration of 2 μg/ml in the same buffer, and 5 μl of a DMSO solution of a sample to be tested, and the resultant mixture was preincubated at 37° C. for 10 minutes and then added with 25 μl of a 1 mM solution of Ang I, followed by incubation at 37° C. for 30 minutes. Then, 50 μl of 30% acetic acid were added to stop the enzyme reaction. On the other hand, 5 μl of DMSO were added in place of the solution of the test sample to similarly conduct a reaction as a blank test. […] The inhibitory activity against cathepsin G was determined by calculating an inhibition rate, median inhibitory concentration (IC50) on the basis of the value in the blank test.

Series [1] has as its target T3, bovine pancreas α-chymotrypsin (Bos taurus, UniProt P00766).
T3 construct: bovine pancreas α-chymotrypsin (product of Sigma Chemical Co., TypeII); purchased Sigma Chemical Co. TypeII; host or cells: bovine pancreas
Briefly: Inhibitory activity against chymotrypsin (Ang I conversion, HPLC). It counts as biochemical. The protocol: as §1
To 12 μl of a 20 mM Tris-hydrochloric acid buffer (pH 7.5) containing 2M KCl, were added 8 μl of a solution with bovine pancreas α-chymotrypsin (product of Sigma Chemical Co., TypeII) dissolved at a concentration of 8 μg/ml in a 20 mM aqueous solution of CaCl2 containing 1 mM HCl, and 5 μl of a DMSO solution of a sample to be tested, and the resultant mixture was preincubated at 37° C. for 10 minutes and then added with 25 μl of a 1 mM solution of Ang I, followed by incubation at 37° C. for 15 minutes. Then, 50 μl of 30% acetic acid were added to stop the enzyme reaction. On the other hand, 5 μl of DMSO were added in place of the solution of the test sample to similarly conduct a reaction as a blank test. After completion of the reaction, each liquid reaction mixture was treated by high performance liquid chromatography in the same manner as in Test Example 1 to quantitate Ang I and Ang II, thereby calculating chymotripsin activity. The inhibitory activity against chymotrypsin was determined by calculating an inhibition rate, median inhibitory concentration (IC50) on the basis of the value in the blank test.

Series [2] relates to vascular restenosis after the operation of PTCA. The note with it: random multifacility clinical study, Circulation 1992; cited from earlier work.
The test system of another series is chymase. The note with it: literature, Okunishi et al.; cited from earlier work.
For series [3] the following is noted: cited from earlier work.
The mark [4] stands for this setting: 37° C., pH 7.5, Ang I substrate, read-out: Inhibitory activities against enzymes (IC50), Chymase.
The mark [5] stands for this setting: human neutrophil cathepsin G, 37° C., pH 7.5, Ang I substrate, read-out: Inhibitory activities against enzymes (IC50), Cathepsin.
Setting [6] is: bovine pancreas, 37° C., pH 7.5, Ang I substrate, read-out: Inhibitory activities against enzymes (IC50), Chymotrypsin.

Structures are written as SMILES. Like-named read-outs stand apart in the source and are kept apart here.

Turning to `Cc1ccccc1S(=O)(=O)N1C(=O)CN(c2ccccc2)C1=O` [Compound 2, 1-phenyl-3-(2-toluenesulfonyl)-imidazolidin-2,4-dione], in the series “in vivo”, the LD50 at 24 h is ≥ 1000 mg/kg and the selectivity ratio at 24 h is ≥ 50.
For the molecule `CN1CCN(C(=O)Cc2ccc(S(=O)(=O)N3C(=O)CN(c4ccccc4)C3=O)cc2)CC1` [Compound 50, 3-(4-N-methylpiperazylcarbonyl-methylbenzenesulfonyl)-1-phenyl-imidazolidin-2,4-dione], the IC50 on Human cardiac chymase stood at 0.85 µM; against cathepsin G, 11 µM; in series [1], 5.2 µM.
On to `O=C1CN(c2ccc(Cl)c(Cl)c2)C(=O)N1S(=O)(=O)c1ccc2ccccc2c1` [Compound 75, 1-(3,4-dichlorophenyl)-3-(2-naphthylsulfonyl)imidazolidin-2,4-dione], for which the figures for the IC50 (at Human cardiac chymase (setting [4]); at cathepsin G (setting [5]); in series [1] (setting [6])) were 0.047 µM, 0.52 µM and 2.4 µM, respectively.
With `O=C1CN(c2ccccc2)C(=O)N1C(=O)c1ccc(-c2ccccc2)cc1` [Compound 15, 3-(4-phenylbenzoyl)-1-phenyl-imidazolidin-2,4-dione], the IC50 came to 14 µM on Human cardiac chymase (setting [4]), 3.2 µM at cathepsin G (setting [5]) and 6.9 µM in series [1] (setting [6]).
`C=CCOC(=O)c1ccc(S(=O)(=O)N2C(=O)CN(c3ccc(C)c(C)c3)C2=O)cc1` [Compound 65, 3-(4-allyloxycarbonylbenzenesulfonyl)-1-(3,4-dimethylphenyl)-imidazolidin-2,4-dione]: the figures for the IC50 (at Human cardiac chymase (setting [4]); at cathepsin G (setting [5]); in series [1] (setting [6])) were 0.027 µM, 1.9 µM and 8.5 µM, respectively.
Take `Cc1ccc(S(=O)(=O)N2C(=O)CN(c3ccccc3)C2=O)cc1` [Compound 5, 1-phenyl-3-(4-toluenesulfonyl)-imidazolidin-2,4-dione]: the IC50 came out at 4.5 µM at cathepsin G (setting [5]) and 7 µM in series [1] (setting [6]).
As for `CCOC(=O)[C@H](CCc1ccccc1)N[C@H]1CCCN2CCC[C@@H](C(=O)O)N2C1=O` [cilazapril], the “prophylactic effect on vascular restenosis after PTCA versus placebo” value in series [2] is “no statistically significant difference”.
With `O=C1CN(c2ccc(Cl)cc2)C(=O)N1S(=O)(=O)c1ccc(Cl)cc1` [Compound 1, 3-(4-chlorobenzenesulfonyl)-1-(4-chlorophenyl)imidazolidin-2,4-dione], the IC50 at Human cardiac chymase (setting [4]) came out at 0.3 µM; on cathepsin G (setting [5]), 1.5 µM; in series [1] (setting [6]), 0.5 µM. Also, in “in vivo”, the LD50 at 24 h was ≥ 1000 mg/kg. In “in vivo”, the selectivity ratio at 24 h was ≥ 50.
Consider `O=C1CN(c2ccccc2)C(=O)N1C(=O)c1ccccc1Cl` [Compound 10, 3-(2-chlorobenzoyl)-1-phenyl-imidazolidin-2,4-dione], for which the results for the IC50 (at Human cardiac chymase (setting [4]); on cathepsin G (setting [5]); in series [1] (setting [6])) were 3.7 µM, 0.96 µM and 3.5 µM, respectively.
On to `CC(C)C[C@H](NC(=O)[C@@H](NC(=O)N[C@@H](Cc1ccccc1)C(=O)O)[C@@H]1CCN=C(N)N1)C(=O)N[C@H](C=O)Cc1ccccc1` [chymostatin], for which, in the series on chymase, the “inhibition of the enzymatic activity of chymase, in words” value is listed as “inhibited by chymostatin”. In series [3], the “decomposition of peptide linkage in vivo” value was “easily decomposed in vivo”.
Regarding `COc1cccc(S(=O)(=O)N2C(=O)CN(c3ccccc3)C2=O)c1` [Compound 20, 1-phenyl-3-(3-methoxybenzenesulfonyl)-imidazolidin-2,4-dione], the IC50 turned out to be 8 µM at cathepsin G (setting [5]) and 3.7 µM in series [1] (setting [6]).
`O=C(O)COc1ccc(S(=O)(=O)N2C(=O)CN(c3ccccc3)C2=O)cc1` [Compound 40, 3-(4-carboxymethyloxybenzenesulfonyl)-1-phenyl-imidazolidin-2,4-dione]: the values for the IC50 (at Human cardiac chymase (setting [4]); on cathepsin G (setting [5]); in series [1] (setting [6])) were 10 µM, 7 µM and 34 µM, respectively.
The matching figures for `O=C1CN(c2ccccc2)C(=O)N1S(=O)(=O)c1cccc2ccccc12` [Compound 70, 3-(1-naphthysulfonyl)-1-(phenyl)-imidazolidin-2,4-dione]: 0.55 µM, 1.8 µM and 1.6 µM.
Consider `O=C1CN(c2cnc3ccccc3c2)C(=O)N1S(=O)(=O)c1ccc(Cl)cc1` [Compound 80, 3-(4-chlorobenzenesulfonyl)-1-(3-quinolyl)-imidazolidin-2,4-dione], for which the values for the IC50 (at Human cardiac chymase (setting [4]); at cathepsin G (setting [5]); in series [1] (setting [6])) were 0.17 µM, 19 µM and 90 µM, respectively.
For the molecule `COC(=O)c1cccc(S(=O)(=O)N2C(=O)CN(c3ccccc3)C2=O)c1` [Compound 35, 3-(3-methoxycarbonylbenzenesulfonyl)1-phenyl-imidazolidin-2,4-dione], the IC50 in series [1] (setting [6]) turned out to be 1.8 µM.
Regarding `O=C1CN(c2ccc(Oc3ccccc3)cc2)C(=O)N1S(=O)(=O)c1ccc(Cl)cc1` [Compound 30, 3-(4-chlorobenzenesulfonyl)-1-(4-phenoxyphenyl)-imidazolidin-2,4-dione], the IC50 was 4.8 µM at cathepsin G (setting [5]) and 39 µM in series [1] (setting [6]).
The like results for `O=C1CN(c2ccccc2)C(=O)N1S(=O)(=O)c1cccc(Oc2ccccc2)c1` [Compound 25, 3-(3-phenoxybenzenesulfonyl)-1-phenyl-imidazolidin-2,4-dione] were, in that order, 3.3 µM and 1.4 µM.
Consider `CC(C)(C)OC(=O)c1cccc(N2CC(=O)N(S(=O)(=O)c3ccc(Cl)cc3)C2=O)c1` [Compound 55], for which the IC50 at Human cardiac chymase (setting [4]) amounted to 15 µM; at cathepsin G (setting [5]), 9.8 µM; in series [1] (setting [6]), 70 µM.
For the molecule `Cc1ccc(N2CC(=O)N(S(=O)(=O)c3ccc(C)c(C)c3)C2=O)cc1C` [Compound 60], the IC50 was 0.06 µM on Human cardiac chymase (setting [4]) and 1.7 µM at cathepsin G (setting [5]). This molecule also came in with an inhibition at 100 µM in series [1] of 33.6%.
Turning to `C=CCOC(=O)Cc1cccc(S(=O)(=O)N2C(=O)CN(c3ccccc3)C2=O)c1` [Compound 45, 3-(3-allyloxycarbonylmethylbenzenesulfonyl)-1-phenyl-imidazolidin-2,4-dione], the values for the IC50 (on Human cardiac chymase (setting [4]); at cathepsin G (setting [5]); in series [1] (setting [6])) were 0.45 µM, 4.5 µM and 3.5 µM, respectively.

In general, LD50 refers to the dose expected to kill half of the subjects tested. A higher LD50 goes with lower toxicity. As usually defined, the IC50 is the concentration that gives 50% inhibition. As usually defined, the inhibition is the share of the control response that was lost under treatment. High values mean strong suppression, low ones little suppression.

The values above are taken from patent US5691335A, “Imidazolidine derivative and use thereof” (Suntory Limited, priority 1994, dated 1997).
